The values that follow come from US12344603B2 (Genentech, Inc., priority 2020, dated 2025).

The target in this assay is IRE1α (Homo sapiens (Human), UniProt O75460, D688N). The experiment in a line: IRE1α TR-FRET competition binding assay (IRE1α HTRF). The note with it: TR-FRET competition binding to kinase domain of IRE1α. Put shortly: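 Competition of compounds against an Alexa fluor 647 ATP-site probe (2 nM final) for the His-tagged kinase domain (0.25 nM final), detected via 2 nM Eu anti-His antibody by TR-FRET, 665 and 615 nm emission. Protein–antibody premix 1 h, 4° C; reaction 1 h, room temperature, pH 7.5 HEPES buffer.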
Chain of IRE1α (O75460 547-977 D688N): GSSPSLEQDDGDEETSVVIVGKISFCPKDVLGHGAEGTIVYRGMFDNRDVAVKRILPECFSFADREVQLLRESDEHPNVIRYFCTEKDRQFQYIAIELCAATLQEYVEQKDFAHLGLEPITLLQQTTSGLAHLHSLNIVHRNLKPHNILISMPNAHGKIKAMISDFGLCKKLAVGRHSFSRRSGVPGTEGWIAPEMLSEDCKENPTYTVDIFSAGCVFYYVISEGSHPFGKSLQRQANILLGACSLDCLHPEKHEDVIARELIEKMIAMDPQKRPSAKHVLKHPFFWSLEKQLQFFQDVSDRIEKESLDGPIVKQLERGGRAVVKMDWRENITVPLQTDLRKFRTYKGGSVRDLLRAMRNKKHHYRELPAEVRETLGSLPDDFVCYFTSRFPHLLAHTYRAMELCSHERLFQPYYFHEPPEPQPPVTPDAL
In general terms: TR-FRET usually uses a lanthanide donor and a delayed reading to cut background.
As for `CC(C)n1c(=O)c(-c2ccc(NS(=O)(=O)Cc3ccccc3)nc2)nc2cnc(N[C@@H]3CNC[C@@H](F)C3)nc21` [Example 236, N-[5-[2-[[(3S,5S)-5-fluoro-3-piperidyl]amino]-8-isopropyl-7-oxo-pteridin-6-yl]-2-pyridyl]-1-phenyl-methanesulfonamide], the IC50 is 500 pM.

Consider `CC(C)n1c(=O)c(-c2ccc(NS(=O)(=O)Cc3ccccc3F)nc2)nc2cnc(N[C@@H]3CNC[C@@H](F)C3)nc21` [Example 237, 1-(2-Fluorophenyl)-N-[5-[2-[[(3S,5S)-5-fluoro-3-piperidyl]amino]-8-isopropyl-7-oxo-pteridin-6-yl]-2-pyridyl]methanesulfonamide], for which the IC50 turned out to be 300 pM.

`CC(C)n1c(=O)c(-c2ccc(NS(=O)(=O)CCC(C)(F)F)nc2)nc2cnc(N[C@H]3CC[C@H](N(C)C)CC3)nc21` [Example 238, N-[5-[2-[[4-(Dimethylamino)cyclohexyl]amino]-8-isopropyl-7-oxo-pteridin-6-yl]-2-pyridyl]-3,3-difluoro-butane-1-sulfonamide] came in with a half-maximal inhibitory concentration (IC50) of 400 pM.

With `CC(C)n1c(=O)c(-c2cc(F)c(NS(=O)(=O)CCC(F)(F)F)c(F)c2)nc2cnc(N[C@H]3CC[C@H](N(C)C)CC3)nc21` [Example 239, N-[4-[2-[[4-(Dimethylamino)cyclohexyl]amino]-8-isopropyl-7-oxo-pteridin-6-yl]-2,6-difluoro-phenyl]-3,3,3-trifluoro-propane-1-sulfonamide], the IC50 was 200 pM.

`CC(C)n1c(=O)c(-c2cc(F)c(NS(=O)(=O)CC3(C(F)(F)F)CC3)c(F)c2)nc2cnc(N[C@H]3CC[C@H](N(C)C)CC3)nc21` [Example 240, N-[4-[2-[[4-(Dimethylamino)cyclohexyl]amino]-8-isopropyl-7-oxo-pteridin-6-yl]-2,6-difluoro-phenyl]-1-[1-(trifluoromethyl)cyclopropyl]methanesulfonamide] displayed an IC50 of 100 pM.

As for `CC(C)n1c(=O)c(-c2cc(F)c(NS(=O)(=O)CCC(C)(F)F)c(F)c2)nc2cnc(N[C@H]3CC[C@H](N(C)C)CC3)nc21` [Example 241, N-[4-[2-[[4-(Dimethylamino)cyclohexyl]amino]-8-isopropyl-7-oxo-pteridin-6-yl]-2,6-difluoro-phenyl]-3,3-difluoro-butane-1-sulfonamide], the IC50 stood at 200 pM.

`CCCS(=O)(=O)Nc1c(F)cc(-c2nc3cnc(N[C@H]4CC[C@H](N(C)C)CC4)nc3n(C(C)C)c2=O)cc1F` [Example 242, N-[4-[2-[[4-(Dimethylamino)cyclohexyl]amino]-8-isopropyl-7-oxo-pteridin-6-yl]-2,6-difluoro-phenyl]propane-1-sulfonamide] came in with a 50% inhibitory concentration (IC50) of 100 pM.

Compound `CC(C)n1c(=O)c(-c2cc(F)c(NS(=O)(=O)Cc3ccc(Cl)cc3)c(F)c2)nc2cnc(N[C@H]3CC[C@H](N(C)C)CC3)nc21` [Example 243, 1-(4-Chlorophenyl)-N-[4-[2-[[4-(dimethylamino)cyclohexyl]amino]-8-isopropyl-7-oxo-pteridin-6-yl]-2,6-difluoro-phenyl]methanesulfonamide] came in with an IC50 of 800 pM.

`CC(C)n1c(=O)c(-c2cc(F)c(NS(=O)(=O)Cc3ccc(C(F)F)cc3)c(F)c2)nc2cnc(N[C@H]3CC[C@H](N(C)C)CC3)nc21` [Example 244, 1-[4-(Difluoromethyl)phenyl]-N-[4-[2-[[4-(dimethylamino)cyclohexyl]amino]-8-isopropyl-7-oxo-pteridin-6-yl]-2,6-difluoro-phenyl]methanesulfonamide] showed an IC50 of 200 pM.

In turn, `CC(C)n1c(=O)c(-c2cc(F)c(NS(=O)(=O)Cc3ccc(F)cc3)c(F)c2)nc2cnc(N[C@H]3CC[C@H](N(C)C)CC3)nc21` [Example 245, N-[4-[2-[[4-(Dimethylamino)cyclohexyl]amino]-8-isopropyl-7-oxo-pteridin-6-yl]-2,6-difluoro-phenyl]-1-(4-fluorophenyl)methanesulfonamide] yielded an IC50 of 100 pM.

With `Cc1ccc(CS(=O)(=O)Nc2c(F)cc(-c3nc4cnc(N[C@H]5CC[C@H](N(C)C)CC5)nc4n(C(C)C)c3=O)cc2F)cc1` [Example 246, N-[4-[2-[[4-(Dimethylamino)cyclohexyl]amino]-8-isopropyl-7-oxo-pteridin-6-yl]-2,6-difluoro-phenyl]-1-(p-tolyl)methanesulfonamide], the IC50 worked out at 200 pM.

As to `CC(C)n1c(=O)c(-c2cc(F)c(NS(=O)(=O)Cc3ccccc3)c(F)c2)nc2cnc(N[C@H]3CC[C@H](N(C)C)CC3)nc21` [Example 247, N-[4-[2-[[4-(Dimethylamino)cyclohexyl]amino]-8-isopropyl-7-oxo-pteridin-6-yl]-2,6-difluoro-phenyl]-1-phenyl-methanesulfonamide], the IC50 stood at 100 pM.

In turn, `CC(C)n1c(=O)c(-c2cc(F)c(NS(=O)(=O)CC(F)(F)CC3CC3)c(F)c2)nc2cnc(N[C@H]3CC[C@H](N(C)C)CC3)nc21` [Example 248, 3-Cyclopropyl-N-[4-[2-[[4-(dimethylamino)cyclohexyl]amino]-8-isopropyl-7-oxo-pteridin-6-yl]-2,6-difluoro-phenyl]-2,2-difluoro-propane-1-sulfonamide] showed an IC50 of 200 pM. Against the preceding compound, the IC50 is about 2-fold higher.

In the case of `CC(C)n1c(=O)c(-c2cc(F)c(NS(=O)(=O)CC3CC(F)(F)C3)c(F)c2)nc2cnc(N[C@H]3CC[C@H](N(C)C)CC3)nc21` [Example 249, 1-(3,3-Difluorocyclobutyl)-N-[4-[2-[[4-(dimethylamino)cyclohexyl]amino]-8-isopropyl-7-oxo-pteridin-6-yl]-2,6-difluoro-phenyl]methanesulfonamide], the IC50 turned out to be 200 pM.

`Cc1nc(NS(=O)(=O)CCC(F)(F)F)ccc1-c1nc2cnc(N[C@H]3CC[C@H](N(C)C)CC3)nc2n(C(C)C)c1=O` [Example 251, N-[5-[2-[[4-(Dimethylamino)cyclohexyl]amino]-8-isopropyl-7-oxo-pteridin-6-yl]-6-methyl-2-pyridyl]-3,3,3-trifluoro-propane-1-sulfonamide] came in with a 50% inhibitory concentration (IC50) of 7000 pM.

In turn, `Cc1nc(NS(=O)(=O)Cc2ccc(F)cc2)ccc1-c1nc2cnc(N[C@H]3CC[C@H](N(C)C)CC3)nc2n(C(C)C)c1=O` [Example 252, N-[5-[2-[[4-(Dimethylamino)cyclohexyl]amino]-8-isopropyl-7-oxo-pteridin-6-yl]-6-methyl-2-pyridyl]-1-(4-fluorophenyl)methanesulfonamide] returned an IC50 of 1000 pM.

As for `Cc1nc(NS(=O)(=O)c2ccccc2F)ccc1-c1nc2cnc(N[C@H]3CC[C@H](N(C)C)CC3)nc2n(C(C)C)c1=O` [Example 253, N-[5-[2-[[4-(Dimethylamino)cyclohexyl]amino]-8-isopropyl-7-oxo-pteridin-6-yl]-6-methyl-2-pyridyl]-2-fluoro-benzenesulfonamide], the IC50 was 300 pM.

Compound `Cc1nc(NS(=O)(=O)c2ccccc2Cl)ccc1-c1nc2cnc(N[C@H]3CC[C@H](N(C)C)CC3)nc2n(C(C)C)c1=O` [Example 254, N-[5-[2-[[4-(Dimethylamino)cyclohexyl]amino]-8-isopropyl-7-oxo-pteridin-6-yl]-6-methyl-2-pyridyl]-2-chloro-benzenesulfonamide] yielded an IC50 of 300 pM.

`Cc1nc(NS(=O)(=O)c2ccccc2C#N)ccc1-c1nc2cnc(N[C@H]3CC[C@H](N(C)C)CC3)nc2n(C(C)C)c1=O` [Example 255, N-[5-[2-[[4-(Dimethylamino)cyclohexyl]amino]-8-isopropyl-7-oxo-pteridin-6-yl]-6-methyl-2-pyridyl]-2-cyano-benzenesulfonamide] returned an IC50 of 200 pM.

Regarding `CC(C)n1c(=O)c(-c2ccc(NS(=O)(=O)CC3CC34CC4)c(F)c2)nc2cnc(N[C@H]3CC[C@H](N(C)C)CC3)nc21` (stereo partly shown) [Example 256, N-[4-[2-[[4-(Dimethylamino)cyclohexyl]amino]-8-isopropyl-7-oxo-pteridin-6-yl]-2-fluoro-phenyl]-1-spiro[2.2]pentan-2-yl-methanesulfonamide], the IC50 worked out at 300 pM.

In turn, `CC(C)n1c(=O)c(-c2ccc(NS(=O)(=O)CC3C(F)(F)C34CCC4)c(F)c2)nc2cnc(N[C@H]3CC[C@H](N(C)C)CC3)nc21` (stereo partly shown) [Example 257, 1-(2,2-Difluorospiro[2.3]hexan-1-yl)-N-[4-[2-[[4-(dimethylamino)cyclohexyl]amino]-8-isopropyl-7-oxo-pteridin-6-yl]-2-fluoro-phenyl]methanesulfonamide] returned an IC50 of 200 pM.

In the case of `CC(C)n1c(=O)c(-c2ccc(NS(=O)(=O)CC3(C(C)(F)F)CC3)c(F)c2)nc2cnc(N[C@H]3CC[C@H](N(C)C)CC3)nc21` [Example 258, 1-[1-(1,1-Difluoroethyl)cyclopropyl]-N-[4-[2-[[4-(dimethylamino)cyclohexyl]amino]-8-isopropyl-7-oxo-pteridin-6-yl]-2-fluoro-phenyl]methanesulfonamide], the IC50 was 200 pM.

Compound `CC(C)n1c(=O)c(-c2ccc(NS(=O)(=O)CCC3CC3(F)F)c(F)c2)nc2cnc(N[C@H]3CC[C@H](N(C)C)CC3)nc21` (stereo partly shown) [Example 259, 2-(2,2-Difluorocyclopropyl)-N-[4-[2-[[4-(dimethylamino)cyclohexyl]amino]-8-isopropyl-7-oxo-pteridin-6-yl]-2-fluoro-phenyl]ethanesulfonamide] displayed an IC50 of 200 pM.

Consider `CC(C)n1c(=O)c(-c2ccc(NS(=O)(=O)CC3CC4(CCC4)C3)c(F)c2)nc2cnc(N[C@H]3CC[C@H](N(C)C)CC3)nc21` [Example 260, N-[4-[2-[[4-(Dimethylamino)cyclohexyl]amino]-8-isopropyl-7-oxo-pteridin-6-yl]-2-fluoro-phenyl]-1-spiro[3.3]heptan-2-yl-methanesulfonamide], for which the IC50 was determined as 200 pM.

For the compound `CC(C)n1c(=O)c(-c2ccc(NS(=O)(=O)CC3(C(F)(F)F)CCC3)c(F)c2)nc2cnc(N[C@H]3CC[C@H](N(C)C)CC3)nc21` [Example 261, N-[4-[2-[[4-(Dimethylamino)cyclohexyl]amino]-8-isopropyl-7-oxo-pteridin-6-yl]-2-fluoro-phenyl]-1-[1-(trifluoromethyl)cyclobutyl]methanesulfonamide], the IC50 stood at 200 pM.

As a reminder, the IC50 is the concentration at which inhibition is half-maximal. A higher IC50 goes with weaker potency in that assay.
